Drawing on patent US10253015B2, “Pyridinyl quinolinone derivatives as mutant-isocitrate dehydrogenase inhibitors” (FORMA TM2, Inc., priority 2014, dated 2019), this text covers IC50 for 34 compounds.

The assay deals with IDH1-R132H recombinant protein (Homo sapiens (Human), UniProt O75874, R132H). Description: IDH1-R132H enzymatic assay. Format: biochemical. The following applies: inhibition of NADPH consumption, diaphorase/resazurin readout; read-out: Enzyme IDH1 R132H Range IC50. Here is the method: Assays were performed in a 384-well black plate. […] After the plate was centrifuged briefly, an aliquot of 10 μL of 2 mM α-ketoglutarate and 20 μM NADPH solution prepared in assay buffer was then added to each well and the reaction was maintained at 25° C. for 45 minutes. An aliquot of 10 μL of diaphorase solution (0.15 U/mL diaphorase and 30 μM Resazurin in assay buffer) was added to each well. […] The IC50 of a given compound was calculated by fitting the dose response curve of inhibition of NADPH consumption at a given concentration with the four parameter logistic equation.
IDH1-R132H recombinant protein, sequence (O75874 whole entry R132H): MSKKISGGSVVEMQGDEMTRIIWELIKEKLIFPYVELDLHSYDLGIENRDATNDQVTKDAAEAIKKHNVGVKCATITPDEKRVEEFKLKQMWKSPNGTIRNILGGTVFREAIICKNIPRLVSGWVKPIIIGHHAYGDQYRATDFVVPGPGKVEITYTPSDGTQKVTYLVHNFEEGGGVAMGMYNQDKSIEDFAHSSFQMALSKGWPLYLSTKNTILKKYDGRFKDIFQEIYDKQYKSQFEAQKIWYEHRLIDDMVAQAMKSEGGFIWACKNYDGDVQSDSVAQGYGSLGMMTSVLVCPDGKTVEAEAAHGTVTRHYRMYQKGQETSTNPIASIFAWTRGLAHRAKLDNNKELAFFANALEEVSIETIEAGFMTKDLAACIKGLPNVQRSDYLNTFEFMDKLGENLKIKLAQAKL
A general note: Alamar Blue is a resazurin reagent that responds to reducing activity.
Broadly, the IC50 is the point on the concentration scale where inhibition reaches its midpoint. For `Cc1cc(N2CCOC2=O)cc(N[C@@H](C)c2cc3cc(Cl)ccc3[nH]c2=O)n1` [Compound I-12, 6-chloro-3-[(1S)-1-{[6-methyl-4-(2-oxo-1,3-oxazolidin-3-yl)pyridin-2-yl]amino}ethyl]-1,2-dihydroquinolin-2-one], the IC50 was 0.1 to 1 µM.
Under `Cc1c(N2CCOC2=O)ccnc1N[C@@H](C)c1cc2cc(Cl)ccc2[nH]c1=O` [Compound I-15, 6-chloro-3-[(1S)-1-{[3-methyl-4-(2-oxo-1,3-oxazolidin-3-yl)pyridin-2-yl]amino}ethyl]-1,2-dihydroquinolin-2-one] stands 0.1 to 1 µM; under `C[C@H](Nc1cc(F)cc(N2CCOC2=O)n1)c1cc2cc(Cl)ccc2[nH]c1=O` [Compound I-16, 6-chloro-3-[(1S)-1-{[4-fluoro-6-(2-oxo-1,3-oxazolidin-3-yl)pyridin-2-yl]amino}ethyl]-1,2-dihydroquinolin-2-one], 1 to 10 µM; under `CC(C)[C@H]1COC(=O)N1c1cccc(N[C@H](C)c2cc3cc(Cl)ccc3[nH]c2=O)n1` [Compound I-20, 6-chloro-3-[(1R)-1-({6-[(4S)-2-oxo-4-(propan-2-yl)-1,3-oxazolidin-3-yl]pyridin-2-yl}amino)ethyl]-1,2-dihydroquinolin-2-one], > 10 µM.
Under `Cc1nc(NC2(c3cc4cc(Cl)ccc4[nH]c3=O)CC2)ccc1C#N` [Compound I-31, 6-{[1-(6-chloro-2-oxo-1,2-dihydroquinolin-3-yl)cyclopropyl]amino}-2-methylpyridine-3-carbonitrile] stands 0.1 to 1 µM; under `Cc1nc(NC(C)(C)c2cc3cc(Cl)ccc3[nH]c2=O)ccc1C#N` [Compound I-32, 6-{[2-(6-chloro-2-oxo-1,2-dihydroquinolin-3-yl)propan-2-yl]amino}-2-methylpyridine-3-carbonitrile], 0.1 to 1 µM.
Next, `Cc1cc(NCCO)cc(N[C@@H](C)c2cc3cc(Cl)ccc3[nH]c2=O)n1` [Compound I-33, 6-chloro-3-[(1S)-1-({4-[(2-hydroxyethyl)amino]-6-methylpyridin-2-yl}amino)ethyl]-1,2-dihydroquinolin-2-one]: 1 to 10 µM; `C[C@H](Nc1cccc(N2CCCS2(=O)=O)n1)c1cc2cc(Cl)ccc2[nH]c1=O` [Compound I-35, 2-(6-{[(1S)-1-(6-chloro-2-oxo-1,2-dihydroquinolin-3-yl)ethyl]amino}pyridin-2-yl)-1λ^6,2-thiazolidine-1,1-dione]: 1 to 10 µM.
For `C[C@H](Nc1nccc(-n2ccnc2)c1F)c1cc2cc(Cl)ccc2[nH]c1=O` [Compound I-37, 6-chloro-3-[(1S)-1-{[3-fluoro-4-(1H-imidazol-1-yl)pyridin-2-yl]amino}ethyl]-1,2-dihydroquinolin-2-one], the IC50 fell in the range of 1 to 10 µM.
Next, `Cc1cn(-c2ccnc(N[C@@H](C)c3cc4cc(Cl)ccc4[nH]c3=O)c2F)cn1` [Compound I-38, 6-chloro-3-[(1S)-1-{[3-fluoro-4-(4-methyl-1H-imidazol-1-yl)pyridin-2-yl]amino}ethyl]-1,2-dihydroquinolin-2-one]: 1 to 10 µM; `C[C@H](Nc1nccc(-c2cccn2C)c1F)c1cc2cc(Cl)ccc2[nH]c1=O` [Compound I-42, 6-chloro-3-[(1S)-1-{[3-fluoro-4-(1-methyl-1H-pyrrol-2-yl)pyridin-2-yl]amino}ethyl]-1,2-dihydroquinolin-2-one]: 1 to 10 µM; `Cc1c(-c2ccnc(N[C@@H](C)c3cc4cc(Cl)ccc4[nH]c3=O)c2F)cnn1C` [Compound I-45, 6-chloro-3-[(1S)-1-{[4-(1,5-dimethyl-1H-pyrazol-4-yl)-3-fluoropyridin-2-yl]amino}ethyl]-1,2-dihydroquinolin-2-one]: 1 to 10 µM.
Under `Cc1cscc1-c1ccnc(N[C@@H](C)c2cc3cc(Cl)ccc3[nH]c2=O)c1F` [Compound I-46, 6-chloro-3-[(1S)-1-{[3-fluoro-4-(4-methylthiophen-3-yl)pyridin-2-yl]amino}ethyl]-1,2-dihydroquinolin-2-one] stands 1 to 10 µM; under `Cc1n[nH]c(C)c1-c1ccnc(N[C@@H](C)c2cc3cc(Cl)ccc3[nH]c2=O)c1F` [Compound I-51, 6-chloro-3-[(1S)-1-{[4-(3,5-dimethyl-1H-pyrazol-4-yl)-3-fluoropyridin-2-yl]amino}ethyl]-1,2-dihydroquinolin-2-one], 1 to 10 µM.
Next, `Cc1noc(C)c1-c1ccnc(N[C@@H](C)c2cc3cc(Cl)ccc3[nH]c2=O)c1F` [Compound I-54, 6-chloro-3-[(1S)-1-{[4-(dimethyl-1,2-oxazol-4-yl)-3-fluoropyridin-2-yl]amino}ethyl]-1,2-dihydroquinolin-2-one]: > 10 µM; `C[C@H](Nc1nccc(-c2ccnn2C2CCCCO2)c1F)c1cc2cc(Cl)ccc2[nH]c1=O` (stereo partly drawn) [Compound I-55, 6-chloro-3-[(1S)-1-({3-fluoro-4-[1-(oxan-2-yl)-1H-pyrazol-5-yl]pyridin-2-yl}amino)ethyl]-1,2-dihydroquinolin-2-one]: > 10 µM.
On to `CC(C)n1nccc1-c1ccnc(N[C@@H](C)c2cc3cc(Cl)ccc3[nH]c2=O)c1F` [Compound I-57, 6-chloro-3-[(1S)-1-({3-fluoro-4-[1-(propan-2-yl)-1H-pyrazol-5-yl]pyridin-2-yl}amino)ethyl]-1,2-dihydroquinolin-2-one], for which the IC50 was > 10 µM.
Consider `N#Cc1ccc(NCc2cc3cc(Cl)ccc3[nH]c2=O)nc1C(F)(F)F` [Compound I-60, 6-{[(6-chloro-2-oxo-1,2-dihydroquinolin-3-yl)methyl]amino}-2-(trifluoromethyl)pyridine-3-carbonitrile], for which the IC50 was 1 to 10 µM.
Next, `COc1nc(C#N)ccc1NCc1cc2cc(Cl)ccc2[nH]c1=O` [Compound I-61, 5-{[(6-chloro-2-oxo-1,2-dihydroquinolin-3-yl)methyl]amino}-6-methoxypyridine-2-carbonitrile]: < 0.1 µM.
Under `N#Cc1ccc(NCc2cc3cc(Cl)ccc3[nH]c2=O)nc1Cl` [Compound I-62, 2-chloro-6-{[(6-chloro-2-oxo-1,2-dihydroquinolin-3-yl)methyl]amino}pyridine-3-carbonitrile] stands > 10 µM; under `N#Cc1ccc(NCc2cc3cc(Cl)ccc3[nH]c2=O)nc1N1CCOC1=O` [Compound I-63, 6-{[(6-chloro-2-oxo-1,2-dihydroquinolin-3-yl)methyl]amino}-2-(2-oxo-1,3-oxazolidin-3-yl)pyridine-3-carbonitrile], > 10 µM; under `CC(C)C1CCCN1c1nc(NCc2cc3cc(Cl)ccc3[nH]c2=O)ccc1C#N` (stereo not shown) [Compound I-64, 6-{[(6-chloro-2-oxo-1,2-dihydroquinolin-3-yl)methyl]amino}-2-[2-(propan-2-yl)pyrrolidin-1-yl]pyridine-3-carbonitrile], > 10 µM.
Under `CC(C)CN(C)c1nc(NCc2cc3cc(Cl)ccc3[nH]c2=O)ccc1C#N` [Compound I-65, 6-{[(6-chloro-2-oxo-1,2-dihydroquinolin-3-yl)methyl]amino}-2-[methyl(2-methylpropyl)amino]pyridine-3-carbonitrile] stands > 10 µM; under `COc1nc(NCc2cc3cc(Cl)ccc3[nH]c2=O)ccc1C#N` [Compound I-66, 6-{[(6-chloro-2-oxo-1,2-dihydroquinolin-3-yl)methyl]amino}-2-methoxypyridine-3-carbonitrile], > 10 µM; under `CC(C)c1cccnc1NCc1cc2cc(Cl)ccc2[nH]c1=O` [Compound I-68, 6-chloro-3-({[3-(propan-2-yl)pyridin-2-yl]amino}methyl)-1,2-dihydroquinolin-2-one], 0.1 to 1 µM.
For `Cc1cc(C)nc(NCc2cc3cc(Cl)ccc3[nH]c2=O)c1` [Compound I-69, 6-chloro-3-{[(4,6-dimethylpyridin-2-yl)amino]methyl}-1,2-dihydroquinolin-2-one], the half-inhibitory concentration (IC50) lay within 1 to 10 µM.
Take `COc1ccnc(NCc2cc3cc(Cl)ccc3[nH]c2=O)c1` [Compound I-70, 6-chloro-3-{[(4-methoxypyridin-2-yl)amino]methyl}-1,2-dihydroquinolin-2-one]: the half-inhibitory concentration (IC50) is 1 to 10 µM.
Consider `O=c1[nH]c2ccc(Cl)cc2cc1CNc1ccc(F)cn1` [Compound I-71, 6-chloro-3-{[(5-fluoropyridin-2-yl)amino]methyl}-1,2-dihydroquinolin-2-one], for which the IC50 lay in the range of 1 to 10 µM.
Next, `N#Cc1ccnc(NCc2cc3cc(Cl)ccc3[nH]c2=O)c1` [Compound I-72, 2-{[(6-chloro-2-oxo-1,2-dihydroquinolin-3-yl)methyl]amino}pyridine-4-carbonitrile]: 1 to 10 µM; `COC(=O)c1cccc(NCc2cc3cc(Cl)ccc3[nH]c2=O)n1` [Compound I-73, methyl 6-{[(6-chloro-2-oxo-1,2-dihydroquinolin-3-yl)methyl]amino}pyridine-2-carboxylate]: 1 to 10 µM.
Under `Cc1ccnc(NCc2cc3cc(Cl)ccc3[nH]c2=O)c1` [Compound I-74, 6-chloro-3-{[(4-methylpyridin-2-yl)amino]methyl}-1,2-dihydroquinolin-2-one] stands 1 to 10 µM.
For `O=c1[nH]c2ccc(Cl)cc2cc1CNc1ccc(Cl)cn1` [Compound I-75, 6-chloro-3-{[(5-chloropyridin-2-yl)amino]methyl}-1,2-dihydroquinolin-2-one], the IC50 was 1 to 10 µM.
Under `O=c1[nH]c2ccc(Cl)cc2cc1CNc1cccnc1O` [Compound I-76, 6-chloro-3-{[(2-hydroxypyridin-3-yl)amino]methyl}-1,2-dihydroquinolin-2-one] stands 1 to 10 µM; under `O=c1[nH]c2ccc(Cl)cc2cc1CNc1ccc(C(F)(F)F)cn1` [Compound I-77, 6-chloro-3-({[5-(trifluoromethyl)pyridin-2-yl]amino}methyl)-1,2-dihydroquinolin-2-one], > 10 µM.
